Experimental findings from patent publication US6685617B1, “Inhibitors of α4β1 mediated cell adhesion” (Pharmacia & Upjohn Company, priority 1998, dated 2004) are described below.

Assay [1] concerns the target T1, α4β1 integrin (Jurkat T-cell adhesion to IL-1 stimulated endothelial cell monolayers) (Homo sapiens, UniProt P05556+P13612).
T1 construct: a T-cell line, Jurkat, known to express the α4β1 integrin; host or cells: Jurkat T-cell line
Description: Jurkat-endothelial cell adhesion assay (Jurkat EC). The settings on record: Jurkat cells on IL-1 stimulated human umbilical vein endothelial cells; read-out: JK/EC (Jurkat EC Assay IC50 value range). The assay is classed as cell-based. The essentials: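 BCECF-AM-labelled Jurkat cells were mixed with compound, generally 100, 20, 5 and 1.25 μM, and added to HUVEC monolayers (passage ≤6) pre-stimulated 4 hr at 37° C with 0.1 ng/ml IL-1. After 5 min on ice and 20 min at 37° C, washed wells were read by fluorescence as % adhesion relative to no compound.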

The target in assay [2] is T2, α4β1 integrin (Jurkat cell adhesion to immobilized CS-1 derived peptide CLHPGEILDVPST) (Homo sapiens, UniProt P05556+P13612).
T2 construct: 100 μl of Jurkat cells (2.5×10^6 cells/ml) in DMEM plus BSA; host or cells: Jurkat T-cell line
T2 sequence (P13612 34-1032): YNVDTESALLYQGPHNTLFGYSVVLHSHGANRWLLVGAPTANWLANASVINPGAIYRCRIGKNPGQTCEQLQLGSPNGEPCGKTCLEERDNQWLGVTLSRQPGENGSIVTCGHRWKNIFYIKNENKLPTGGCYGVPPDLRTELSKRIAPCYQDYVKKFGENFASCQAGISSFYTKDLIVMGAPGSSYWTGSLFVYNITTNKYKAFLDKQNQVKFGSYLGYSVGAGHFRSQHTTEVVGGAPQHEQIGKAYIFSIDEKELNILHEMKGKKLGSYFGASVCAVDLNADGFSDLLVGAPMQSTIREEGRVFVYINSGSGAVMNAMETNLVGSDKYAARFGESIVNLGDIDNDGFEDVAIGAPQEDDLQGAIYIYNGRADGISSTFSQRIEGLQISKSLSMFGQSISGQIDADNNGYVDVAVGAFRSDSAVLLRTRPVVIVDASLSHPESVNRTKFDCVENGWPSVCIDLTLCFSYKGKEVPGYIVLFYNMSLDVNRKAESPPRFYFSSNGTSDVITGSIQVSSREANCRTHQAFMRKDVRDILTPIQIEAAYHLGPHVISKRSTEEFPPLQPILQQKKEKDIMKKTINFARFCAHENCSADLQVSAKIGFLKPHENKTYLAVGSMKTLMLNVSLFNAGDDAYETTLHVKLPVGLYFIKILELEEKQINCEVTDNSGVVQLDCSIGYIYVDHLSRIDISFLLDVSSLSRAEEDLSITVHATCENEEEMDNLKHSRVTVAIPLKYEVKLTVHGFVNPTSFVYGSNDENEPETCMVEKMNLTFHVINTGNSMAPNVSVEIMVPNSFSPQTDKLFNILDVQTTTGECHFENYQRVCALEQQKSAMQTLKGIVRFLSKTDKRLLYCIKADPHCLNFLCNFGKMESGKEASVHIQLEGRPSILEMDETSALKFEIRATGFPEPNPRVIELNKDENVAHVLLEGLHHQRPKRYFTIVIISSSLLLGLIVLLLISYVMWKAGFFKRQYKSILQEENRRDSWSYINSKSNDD
T2 sequence (P05556 21-798): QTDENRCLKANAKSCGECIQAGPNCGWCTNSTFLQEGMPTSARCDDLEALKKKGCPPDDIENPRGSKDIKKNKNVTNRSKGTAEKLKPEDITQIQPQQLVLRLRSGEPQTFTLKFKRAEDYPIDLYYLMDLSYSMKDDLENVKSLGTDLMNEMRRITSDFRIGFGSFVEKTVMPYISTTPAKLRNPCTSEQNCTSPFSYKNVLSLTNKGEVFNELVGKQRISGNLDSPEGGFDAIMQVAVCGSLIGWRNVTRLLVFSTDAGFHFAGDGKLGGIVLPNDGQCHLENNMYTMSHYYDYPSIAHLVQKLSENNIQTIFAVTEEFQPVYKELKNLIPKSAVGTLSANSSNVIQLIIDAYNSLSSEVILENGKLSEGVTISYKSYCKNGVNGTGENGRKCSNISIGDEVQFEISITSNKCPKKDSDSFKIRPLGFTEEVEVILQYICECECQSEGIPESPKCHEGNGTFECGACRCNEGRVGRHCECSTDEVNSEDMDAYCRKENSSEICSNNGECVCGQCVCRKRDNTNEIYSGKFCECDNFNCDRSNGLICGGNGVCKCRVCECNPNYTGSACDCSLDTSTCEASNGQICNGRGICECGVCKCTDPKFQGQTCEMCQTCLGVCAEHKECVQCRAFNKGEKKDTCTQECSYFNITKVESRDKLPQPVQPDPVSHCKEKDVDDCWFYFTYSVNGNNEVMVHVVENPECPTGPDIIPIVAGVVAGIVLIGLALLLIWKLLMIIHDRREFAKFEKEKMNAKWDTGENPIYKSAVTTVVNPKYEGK
Description: Jurkat-CS-1 assay. In kind it is cell-based. To be noted: Jurkat cells on CS-1 peptide coated plates; read-out: JK/CS-1 (Jurkat CS-1 Assay IC50 value range). The method in brief: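 CS-1 peptide was SPDP-crosslinked onto HSA-coated plates and blocked with BSA. Jurkat cells (2.5×10^6 cells/ml) in DMEM/BSA were mixed with compound, generally at 100, 20, 5 and 1.25 μM, and allowed to adhere for 1 hr at 37° C. Bound cells were fixed, stained with toluidine blue and quantified by OD590.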

T1 sequence (P13612 34-1032): as the sequence (P13612 34-1032) above
T1 sequence (P05556 21-798): as the sequence (P05556 21-798) above

As for `CCOC(=O)N1CSC(C)(C)[C@@H]1C(=O)N[C@@H](Cc1ccc(NC(=O)c2c(Cl)cccc2Cl)cc1)C(=O)OC` (relative stereo) [Example 30, [S-(R*,R*)]-4-[[[1-[[4-[(2,6-Dichlorobenzoyl)amino]phenyl]methyl]-2-methoxy-2-oxoethyl)amino]carbonyl]-5,5-dimethyl-3-thiazolidinecarboxylic Acid 3-Ethyl Ester], the IC50 in assay [1] was ≥ 1000 nM; in assay [2], 50 to 750 nM.
For the molecule `CCOC(=O)N1CSC(C)(C)[C@@H]1C(=O)N[C@@H](Cc1ccc(NC(=O)c2c(Cl)cccc2Cl)cc1)C(=O)O` (relative stereo) [Example 31, [S-(R*,R*)]-4-[[[1-Carboxy-2-[4-[(2,6-dichlorobenzoyl)amino]phenyl]ethyl]amino]carbonyl]-5,5-dimethyl-3-thiazolidinecarboxylic Acid 3-Ethyl Ester], the IC50 was ≤ 250 nM in assay [1] and ≤ 50 nM in assay [2].
Regarding `COC(=O)[C@H](Cc1ccc(OCc2c(Cl)cccc2Cl)cc1)NC(=O)[C@H]1CSCN1C(=O)OC(C)(C)C` (relative stereo) [Example 32, [S-(R*,R*)]-4-[[[1-[4-[(2,6-Dichlorophenyl)methoxy]phenyl]methyl]-2-methoxy-2-oxoethyl]amino]carbonyl]-3-thiazolidinecarboxylic Acid 3-(1,1-Dimethylethyl)ester], the IC50 in assay [1] is ≥ 1000 nM; in assay [2], ≥ 750 nM.
For the molecule `CC(C)(C)OC(=O)N1CSC[C@@H]1C(=O)N[C@@H](Cc1ccc(OCc2c(Cl)cccc2Cl)cc1)C(=O)O` (relative stereo) [Example 33, [S-(R*,R*)]-4-[[[1-Carboxy-2-[4-[(2,6-dichlorophenyl)methoxy]phenyl]ethyl]amino]carbonyl]-3-thiazolidinecarboxylic Acid 3-(1,1-Dimethylethyl)ester], the IC50 in assay [1] is ≤ 250 nM; in assay [2] it was 50 to 750 nM.
For `CCOC(=O)N1CSC[C@@H]1C(=O)N[C@@H](Cc1ccc(OCc2c(Cl)cccc2Cl)cc1)C(=O)OC` (relative stereo) [Example 34, [S-(R*,R*)]-4-[[[1-[4-[(2,6-Dichlorophenyl)methoxy]phenylmethyl]-2-methoxy-2-oxoethyl]amino]carbonyl]-3-thiazolidinecarboxylic Acid 3-Ethyl Ester], the IC50 is ≥ 1000 nM in assay [1] and 50 to 750 nM in assay [2].
For `CCOC(=O)N1CSC[C@@H]1C(=O)N[C@@H](Cc1ccc(OCc2c(Cl)cccc2Cl)cc1)C(=O)O` (relative stereo) [Example 35, [S-(R*,R*)]-4-[[[1-Carboxy-2-[4-[(2,6-dichlorophenyl)methoxy]phenyl]ethyl]amino]carbonyl]-3-thiazolidinecarboxylic Acid 3-Ethyl Ester] the same measures were 250 to 1000 nM and 50 to 750 nM.
Regarding `O=C(O)[C@H](Cc1ccc(OCc2c(Cl)cccc2Cl)cc1)NC(=O)[C@H]1CSCN1C(=O)OCCN1CCOCC1` (relative stereo) [Example 37], the IC50 was ≤ 250 nM in assay [1] and ≤ 50 nM in assay [2].
Regarding `CC(C)(C)OC(=O)N1CSC[C@H]1C(=O)N[C@@H](Cc1ccc(OCc2c(Cl)cccc2Cl)cc1)C(=O)O` (relative stereo) [Example 41, [R-(R*,S*)]-4-[[[1-Carboxy-2-[4-[(2,6-dichlorophenyl)methoxy]phenyl]ethyl]amino]carbonyl]-3-thiazolidinecarboxylic Acid 3-(1,1-Dimethylethyl)ester], the IC50 in assay [1] was ≥ 1000 nM; in assay [2], ≥ 750 nM.
As for `COC(=O)CCCC(=O)N1CSC[C@@H]1C(=O)N[C@@H](Cc1ccc(NC(=O)c2c(Cl)cccc2Cl)cc1)C(=O)OC` (relative stereo) [Example 59, [S-(R*,R*)]-4-[[[1-[4-[(2,6-dichlorobenzoyl)amino]phenyl]methyl]-2-methoxy-2-oxoethyl]amino]carbonyl]-δ-oxo-3-thiazolidinepentanoic Acid 3-Methyl Ester], the IC50 in assay [1] is ≥ 1000 nM; in assay [2], 50 to 750 nM.
With `O=C(O)CCCC(=O)N1CSC[C@@H]1C(=O)N[C@@H](Cc1ccc(NC(=O)c2c(Cl)cccc2Cl)cc1)C(=O)O` (relative stereo) [Example 60, [S-(R*,R*)]-4-[[[1-Carboxy-2-[4-[(2,6-dichlorobenzoyl)amino]phenyl]ethyl]amino]carbonyl]-δ-oxo-3-thiazolidinepentanoic Acid], the IC50 was ≤ 250 nM in assay [1] and ≤ 50 nM in assay [2].
As for `CC1(C)SCN(C(=O)CCC(=O)O)[C@H]1C(=O)N[C@@H](Cc1ccc(NC(=O)c2c(Cl)cccc2Cl)cc1)C(=O)O` (relative stereo) [Example 63, [S-(R*,R*)]-4-[[[1-Carboxy-2-[4-[(2,6-dichlorobenzoyl)amino]phenyl]ethyl]amino]carbonyl]-5,5-dimethyl-δ-oxo-3-thiazolidinebutanoic Acid], the IC50 was ≤ 250 nM in assay [1] and ≤ 50 nM in assay [2].
For `O=C(O)CCC(=O)N1CSC[C@@H]1C(=O)N[C@@H](Cc1ccc(OCc2c(Cl)cccc2Cl)cc1)C(=O)O` (relative stereo) [Example 64, [S-(R*,R*)]-4-[[[1-Carboxy-2-[4-[(2,6-dichlorophenyl)methoxy]phenyl]ethyl]amino]carbonyl]-γ-oxo-3-thiazolidinebutanoic Acid] the same measures were ≤ 250 nM and ≤ 50 nM.
For `O=C(O)CCC(=O)N1CSC[C@H]1C(=O)N[C@@H](Cc1ccc(NC(=O)c2c(Cl)cccc2Cl)cc1)C(=O)O` (relative stereo) [Example 67, [R-(R*,S*)]-4-[[[1-Carboxy-2-[4-[(2,6-dichlorobenzoyl)amino]phenyl]ethyl]amino]carbonyl]-γ-oxo-3-thiazolidinebutanoic Acid], the IC50 was ≥ 1000 nM in assay [1] and 50 to 750 nM in assay [2].
For the molecule `O=C(O)CCCC(=O)N1CSC[C@H]1C(=O)N[C@@H](Cc1ccc(NC(=O)c2c(Cl)cccc2Cl)cc1)C(=O)O` (relative stereo) [Example 68, [R-(R*,S*)]-4-[[[1-Carboxy-2-[4-[(2,6-dichlorobenzoyl)amino]phenyl]ethyl]amino]carbonyl]-δ-oxo-3-thiazolidinepentanoic Acid], the IC50 in assay [1] is ≥ 1000 nM; in assay [2], 50 to 750 nM.
`COC(=O)[C@H](Cc1ccc(NC(=O)c2c(Cl)cccc2Cl)cc1)NC(=O)[C@@H]1CSC(C)(C)N1C(=O)OC(C)(C)C` (relative stereo) [Example 72, [R-(R*,S*)]-4-[[[1-[[4-[(2,6-Dichlorobenzoyl)amino]phenyl]methyl]-2-methoxy-2-oxo-ethyl]amino]carbonyl]-2,2-dimethyl-3-thiazolidinecarboxylic Acid 3-(1,1-Dimethylethyl)ester]: the IC50 was ≥ 1000 nM in assay [1] and ≥ 750 nM in assay [2].
As for `CC(C)(C)OC(=O)N1[C@H](C(=O)N[C@@H](Cc2ccc(NC(=O)c3c(Cl)cccc3Cl)cc2)C(=O)O)CSC1(C)C` (relative stereo) [Example 73, [R-(R*,S*)]-4-[[[Carboxy-2-[4-[(2,6-dichlorobenzoyl)amino]phenyl]ethyl]amino]carbonyl]-2,2-dimethyl-3-thiazolidinecarboxylic Acid 3-(1,1-Dimethylethyl)ester], the IC50 is ≥ 1000 nM in assay [1] and 50 to 750 nM in assay [2].
As to `COC(=O)[C@H](Cc1ccc(NC(=O)c2c(Cl)cccc2Cl)cc1)NC(=O)[C@H]1CSC(C)(C)N1C(=O)OC(C)(C)C` (relative stereo) [Example 75, [S-(R*,R*)]-4-[[[1-[[4-[(2,6-Dichlorobenzoyl)amino]phenyl]methyl]-2-methoxy-2-oxo-ethyl]amino]carbonyl]-2,2-dimethyl-3-thiazolidinecarboxylic Acid 3-(1,1-Dimethylethyl)ester], the IC50 was ≥ 1000 nM in assay [1] and ≥ 750 nM in assay [2].
Taken in the same sequence, the figures for `CC(C)(C)OC(=O)N1[C@@H](C(=O)N[C@@H](Cc2ccc(NC(=O)c3c(Cl)cccc3Cl)cc2)C(=O)O)CSC1(C)C` (relative stereo) [Example 76, [S-(R*,R*)]-4-[[[1-Carboxy-2-[4-[(2,6-dichlorobenzoyl)amino]phenyl]ethyl]amino]carbonyl]-2,2-dimethyl-3-thiazolidinecarboxylic Acid 3-(1,1-Dimethylethyl)ester] were ≤ 250 nM and 50 to 750 nM.
Regarding `CCOC(=O)N1[C@@H](C(=O)N[C@@H](Cc2ccc(NC(=O)c3c(Cl)cccc3Cl)cc2)C(=O)OC)CSC12CCCC2` (relative stereo) [Example 77, [S-(R*,R*)]-3-[[[1-[[4-[(2,6-Dichlorobenzoyl)amino]phenyl]methyl]-2-methoxy-2-oxoethyl]amino]carbonyl]-1-thia-4-azaspiro[4.4]nonane-4-carboxylic Acid 4-Ethyl Ester], the IC50 is ≥ 1000 nM in assay [1] and ≥ 750 nM in assay [2].
For the molecule `CCOC(=O)N1[C@@H](C(=O)N[C@@H](Cc2ccc(NC(=O)c3c(Cl)cccc3Cl)cc2)C(=O)O)CSC12CCCC2` (relative stereo) [Example 78, [S-(R*,R*)]-3-[[[1-Carboxy-2-[4-[(2,6-dichlorobenzoyl)amino]phenyl]ethyl]amino]carbonyl]-1-thia-4-azaspiro[4.4]nonane-4-carboxylic Acid 4-Ethyl Ester], the IC50 in assay [1] is ≥ 1000 nM; in assay [2], 50 to 750 nM.
